How the values were obtained:
Format in all cases: cell-based
[1] = test system: human peripheral blood monocytes; assay: Activation of monocytes in vitro measured by production of tumor necrosis factor (ELISA); settings: for TNF (pg/ml) at given Concentration of Compound: 24 Hours
Experimental: (§1) Human peripheral blood monocytes were isolated by density gradient centrifugation as noted in Example 13. The cell number was adjusted to 5×10^5 cells per ml in RPM 1640 media containing 5% human AB negative serum. One ml containing 5×10^5 cells were placed in individual wells of a 24-well Plastek tissue culture plate. Various drugs in a volume of 0.5 ml were added at time zero. The cells were incubated at 37° C. in a 5% CO2 atmosphere. Aliquots (0.1 ml) of the supernatant were removed at 24 hours and frozen at -80° C. These samples were subsequently assayed for tumor necrosis factor (TNF) activity using a commercially available ELISA Assay from T-Cell Sciences (Cambridge, Mass.).
Human peripheral blood monocytes were isolated by density gradient centrifugation as described in Example 13. The cells were plated in 24-well microliter plates as described in Example 33. The compounds Were prepared in liposomes as described in Example 10, and assayed for TNF production, as described in Example 33. The results are set forth in Table 5, and show significant levels of TNF compared to controls.
as §1, with “of” for “of a”, “zero. The compounds were also formulated in liposomes as described in Example 10, and added in a volume of 0.5 ml to individual wells of a 24-well Plastek tissue culture plate.” for “zero.”, “-20°” for “-80°”, “TNF as described in Example 33 and Interleukin-1-beta (IL-1β)” for “tumor necrosis factor (TNF) activity”, “kit” for “Assay”, “Cistron (Pine Brook, N.J.).” for “T-Cell Sciences (Cambridge, Mass.).”

[2] = test system: Human peripheral blood mononuclear cells; assay: Activation of monocytes in vitro measured by in vitro tumor cell cytotoxicity
Experimental: Human peripheral blood mononuclear cells were isolated by density gradient centrifugation on 46% Percoll. 1×10^5 of the mononuclear cells were plated onto Falcon microliter plates and allowed to adhere for two hours. The non-adherent cells were removed and fresh media added. The cells were allowed to incubate for 24 hours after which various concentrations of the drug either alone or incorporated in liposomes was added. After 24 hours, the plates were washed and 1×10^4 I^125 labelled target cells were added. Following an additional 72 hours of coincubation, the plates were washed and the residual radioactivity determined. The specific cytotoxicity was calculated from the formula: [formula] The results of cytotoxicity assay of various compounds alone or incorporated in liposomes at various concentrations is given in Table 6.

[3] = test system: human peripheral blood monocytes; assay: Activation of monocytes in vitro measured by production of Interleukin-1-beta (ELISA); settings: 24 Hours
Experimental: as §1, with “of” for “of a”, “zero. The compounds were also formulated in liposomes as described in Example 10, and added in a volume of 0.5 ml to individual wells of a 24-well Plastek tissue culture plate.” for “zero.”, “-20°” for “-80°”, “TNF as described in Example 33 and Interleukin-1-beta (IL-1β)” for “tumor necrosis factor (TNF) activity”, “kit” for “Assay”, “Cistron (Pine Brook, N.J.).” for “T-Cell Sciences (Cambridge, Mass.).”

[4] = Experiment 3, free drug in saline 0.1 μg/ml, 24 hours
[5] = Experiment 3, free drug in saline 1.0 μg/ml, 24 hours
[6] = Experiment 3, free drug in saline 10.0 μg/ml, 24 hours
[7] = PC/PG liposomes (7:3), 0.1 μg/ml
[8] = PC/PG liposomes (7:3), 1.0 μg/ml
[9] = PC/PG liposomes (7:3), 10.0 μg/ml
[10] = no formulation given (drug alone), 0.1 μg/ml
[11] = no formulation given (drug alone), 1.0 μg/ml
[12] = no formulation given (drug alone), 10.0 μg/ml
[13] = Table 7, Experiment 1, 0.01 μg/ml
[14] = Table 7, Experiment 1, 0.1 μg/ml
[15] = Table 7, Experiment 1, 1.0 μg/ml
[16] = Table 7, Experiment 1, 10.0 μg/ml
[17] = Table 8, Experiment 1, 0.01 μg/ml
[18] = Table 8, Experiment 1, 0.1 μg/ml
[19] = Table 8, Experiment 1, 1.0 μg/ml
[20] = Table 8, Experiment 1, 10.0 μg/ml
[21] = Table 9, Experiment 2, 0.1 μg/ml
[22] = Table 9, Experiment 2, 1.0 μg/ml
[23] = Table 9, Experiment 2, 10.0 μg/ml

| Compound | TNF Level [1, 4] [pg/mL] | TNF Level [1, 5] [pg/mL] | TNF Level [1, 6] [pg/mL] | TNF (pg/ml) at given Concentration of Compound [1, 14] [pg/mL] | TNF (pg/ml) at given Concentration of Compound [1, 15] [pg/mL] | TNF (pg/ml) at given Concentration of Compound [1, 16] [pg/mL] | IL-1-beta (pg/ml) at given Concentration of Compound [3, 17] [pg/mL] | IL-1-beta (pg/ml) at given Concentration of Compound [3, 18] [pg/mL] | IL-1-beta (pg/ml) at given Concentration of Compound [3, 19] [pg/mL] | IL-1-beta (pg/ml) at given Concentration of Compound [3, 20] [pg/mL] | also measured |
| --- | --- | --- | --- | --- | --- | --- | --- | --- | --- | --- | --- |
| CCCCCCCCCCCCCCCC(=O)OCC(COC(=O)CCCCCCCCCCCCCCC)NC(=O)C(C)NC(=O)CCC(NC(=O)C(C)NC(=O)C(C)OC1C(NC(C)=O)C(O)OC(CO)C1OC1OC(CO)C(O)C(O)C1NC(C)=O)C(N)=O [Compound IA, 4-O-[2-acetamido-2-deoxy-β-D-glucopyranosyl]-2-acetamido-2-deoxy-3-O-[D-2-propanoyl-L-alanyl-D-isoglutaminyl-L-alanyl-2-(1,3-dipalmitoyloxy)propylamide]-D-glucopyranose] | 280 | 1000 | 1680 | – | – | – | – | – | – | – | TNF Level ([1]; Table 5, compound incorporated in liposomes, 0.1 μg/ml): 430 pg/mL; TNF Level ([1]; Table 5, compound incorporated in liposomes, 1.0 μg/ml): 800 pg/mL; TNF Level ([1]; Table 5, compound incorporated in liposomes, 10.0 μg/ml): 750 pg/mL; Cytotoxicity [2, 7]: 7.0%; Cytotoxicity [2, 8]: 7.0%; Cytotoxicity [2, 9]: 6.0%; Cytotoxicity ([2]; PC/PS liposomes (7:3), 0.1 μg/ml): 8.0%; Cytotoxicity ([2]; PC/PS liposomes (7:3), 1.0 μg/ml): 5.0%; Cytotoxicity ([2]; PC/PS liposomes (7:3), 10.0 μg/ml): 19.0%; Cytotoxicity [2, 10]: 1.0%; Cytotoxicity [2, 11]: 4.0%; Cytotoxicity [2, 12]: 3.0% |
| CCCCCCCCCCCCCCCC(=O)OCC(COC(=O)CCCCCCCCCCCCCCC)NC(=O)C(C)NC(=O)CCC(NC(=O)C(C)NC(=O)C(C)OC1C(NC(C)=O)C(O)OC(CO)C1OC1OC(CO)C(O)C(O)C1NC(C)=O)C(N)=O [Compound IB, GlcNAcMurNAc-L-Ala-D-isoGln-D-Ala-NHDPG] | 180 | 350 | 1980 | – | – | – | – | – | – | – | – |
| CCCCCCCCCCCCCCCC(=O)OCC(COC(=O)CCCCCCCCCCCCCCC)NC(=O)C(C)NC(=O)CCC(NC(=O)C(C)NC(=O)C(C)OC1C(NC(C)=O)C(O)OC(CO)C1OC1OC(CO)C(O)C(O)C1NC(C)=O)C(N)=O [Compound IC, GlcNAcMurNAc-D-Ala-D-isoGln-D-Ala-NHDPG] | 280 | 300 | 250 | – | – | – | – | – | – | – | Cytotoxicity [2, 7]: 10.0%; Cytotoxicity [2, 8]: 4.0%; Cytotoxicity [2, 9]: 12.0%; Cytotoxicity [2, 10]: 5.0%; Cytotoxicity [2, 11]: 16.0%; Cytotoxicity [2, 12]: 15.0% |
| CCCCCCCCCCCCCCCC(=O)OCC(COC(=O)C(C)NC(=O)CCC(NC(=O)C(C)NC(=O)C(C)OC1C(NC(C)=O)C(O)OC(CO)C1OC1OC(CO)C(O)C(O)C1NC(C)=O)C(N)=O)OC(=O)CCCCCCCCCCCCCCC [Compound IIB, 4-O-[2-acetamido-2-deoxy-β-D-glucopyranosyl]-2-acetamido-2-deoxy-3-O-[D-2-propanoyl-L-alanyl-D-isoglutaminyl-D-alanyl-1,2-dipalmitoyl-sn-glycerol]-D-glucopyranose] | 250 | 500 | 1600 | – | – | – | – | – | – | – | – |
| CCCCCCCCCCCCCCCC(=O)OCC(COC(=O)C(C)NC(=O)CCC(NC(=O)C(C)NC(=O)C(C)OC1C(NC(C)=O)C(O)OC(CO)C1OC1OC(CO)C(O)C(O)C1NC(C)=O)C(N)=O)OC(=O)CCCCCCCCCCCCCCC [Compound IIC, GlcNAcMurNAc-D-Ala-D-isoGln-D-Ala-DPG] | – | – | – | – | – | – | – | – | – | – | TNF Level ([1]; Experiment 4, free drug in saline 0.1 μg/ml, 24 hours): 40 pg/mL; TNF Level ([1]; Experiment 4, free drug in saline 1.0 μg/ml, 24 hours): 110 pg/mL; TNF Level ([1]; Experiment 4, free drug in saline 10.0 μg/ml, 24 hours): 450 pg/mL |
| CC(=O)NC1C(OC2C(CO)OC(O)C(NC(C)=O)C2OC(C)C(=O)NC(C(=O)NC(CCC(=O)O)C(N)=O)C(C)O)OC(CO)C(O)C1O [GlcNAcMurNAc-L-Thr-D-isoGln] | – | – | – | 440 | 1050 | 1050 | 50 | 70 | 230 | 630 | TNF (pg/ml) at given Concentration of Compound [1, 13]: 200 pg/mL |
| CCCCCCCCCCCCCCCC(=O)OCC(COC(=O)CCCCCCCCCCCCCCC)NC(=O)C(C)NC(=O)CCC(NC(=O)C(NC(=O)C(C)OC1C(NC(C)=O)C(O)OC(CO)C1OC1OC(CO)C(O)C(O)C1NC(C)=O)C(C)O)C(N)=O [ID, GlcNAcMurNAc-F-Thr-D-isoGln-F-Ala-NHDPG] | – | – | – | 0 | 250 | 1060 | 10 | 16 | 8 | 90 | – |
| CCCCCCCCCCCCCCCC(=O)OCC(COC(=O)C(C)NC(=O)CCC(NC(=O)C(NC(=O)C(C)OC1C(NC(C)=O)C(O)OC(CO)C1OC1OC(CO)C(O)C(O)C1NC(C)=O)C(C)O)C(N)=O)OC(=O)CCCCCCCCCCCCCCC [IID, GlcNAcMurNAc-F-Thr-D-isoGln-F-Ala-DPG] | – | – | – | 320 | 1080 | 2150 | 70 | 14 | 170 | 690 | TNF (pg/ml) at given Concentration of Compound [1, 13]: 70 pg/mL |
| CCCCCCCCCCCCCCCC(=O)OCC(COC(=O)C(C)NC(=O)CCC(NC(=O)C(CO)NC(=O)C(C)OC1C(NC(C)=O)C(O)OC(CO)C1OC1OC(CO)C(O)C(O)C1NC(C)=O)C(N)=O)OC(=O)CCCCCCCCCCCCCCC [IIE, GlcNAcMurNAc-F-Ser-D-isoGln-F-Ala-DPG] | – | – | – | – | – | – | – | – | – | – | TNF (pg/ml) at given Concentration of Compound [1, 21]: 150 pg/mL; TNF (pg/ml) at given Concentration of Compound [1, 22]: 800 pg/mL; TNF (pg/ml) at given Concentration of Compound [1, 23]: 1500 pg/mL |
| CCCCCCCCCCCCCCCC(=O)OCC(COC(=O)C(C)NC(=O)CCC(NC(=O)C(NC(=O)C(C)OC1C(NC(C)=O)C(O)OC(CO)C1OC1OC(CO)C(O)C(O)C1NC(C)=O)C(C)C)C(N)=O)OC(=O)CCCCCCCCCCCCCCC [IIF, GlcNAcMurNAc-F-Val-D-isoGln-F-Ala-DpG] | – | – | – | 440 | 480 | 400 | 220 | 212 | 260 | 260 | TNF (pg/ml) at given Concentration of Compound [1, 13]: 510 pg/mL |
| CCCCCCCCCCCCCCCC(=O)OCC(COC(=O)C(NC(=O)CCC(NC(=O)C(C)NC(=O)C(C)OC1C(NC(C)=O)C(O)OC(CO)C1OC1OC(CO)C(O)C(O)C1NC(C)=O)C(N)=O)C(C)C)OC(=O)CCCCCCCCCCCCCCC [IIG, GlcNAcMurNAc-F-Ala-D-isoGln-F-Val-DpG] | – | – | – | – | – | – | – | – | – | – | TNF (pg/ml) at given Concentration of Compound [1, 21]: 1150 pg/mL; TNF (pg/ml) at given Concentration of Compound [1, 22]: 1500 pg/mL; TNF (pg/ml) at given Concentration of Compound [1, 23]: 1400 pg/mL |

Source: US5416070A, “Composition for macrophage activation” (ImmunoTherapeutics, Inc., priority 1990, dated 1995)
